Data from ChEMBL document CHEMBL1201862, “PubChem BioAssay data set” (2004).
The source made the active and inactive calls.

Legend:
Assay type in all cases: functional
Genome polyprotein = Genome polyprotein (dengue virus type 2, UniProt P29990); assay: Dengue-2 NS5 methyltransferase inhibitors, primary screen, biochemical, confirmation dose response (AID 588689)
[1] = biological target: Megakaryocyte-associated tyrosine-protein kinase (Homo sapiens, UniProt P42679);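 note: affinity measured as one member of a kinase panel (Navigating the Kinome) against MATK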
[2] = biological target: Serine/threonine-protein kinase D2 (Homo sapiens, UniProt Q9BZL6);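 note: measured against PRKD2 as one member of a kinome-wide kinase profiling panel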
[3] = biological target: Ribosomal protein S6 kinase beta-1 (Homo sapiens, UniProt P23443);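 note: measured as one member of a kinome-wide profiling panel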
[4] = biological target: T1, Tyrosine-protein kinase receptor TYRO3 (Homo sapiens, UniProt Q06418);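 note: TYRO3 value obtained as one member of a kinome-wide profiling panel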
T1 sequence (Q06418 whole entry): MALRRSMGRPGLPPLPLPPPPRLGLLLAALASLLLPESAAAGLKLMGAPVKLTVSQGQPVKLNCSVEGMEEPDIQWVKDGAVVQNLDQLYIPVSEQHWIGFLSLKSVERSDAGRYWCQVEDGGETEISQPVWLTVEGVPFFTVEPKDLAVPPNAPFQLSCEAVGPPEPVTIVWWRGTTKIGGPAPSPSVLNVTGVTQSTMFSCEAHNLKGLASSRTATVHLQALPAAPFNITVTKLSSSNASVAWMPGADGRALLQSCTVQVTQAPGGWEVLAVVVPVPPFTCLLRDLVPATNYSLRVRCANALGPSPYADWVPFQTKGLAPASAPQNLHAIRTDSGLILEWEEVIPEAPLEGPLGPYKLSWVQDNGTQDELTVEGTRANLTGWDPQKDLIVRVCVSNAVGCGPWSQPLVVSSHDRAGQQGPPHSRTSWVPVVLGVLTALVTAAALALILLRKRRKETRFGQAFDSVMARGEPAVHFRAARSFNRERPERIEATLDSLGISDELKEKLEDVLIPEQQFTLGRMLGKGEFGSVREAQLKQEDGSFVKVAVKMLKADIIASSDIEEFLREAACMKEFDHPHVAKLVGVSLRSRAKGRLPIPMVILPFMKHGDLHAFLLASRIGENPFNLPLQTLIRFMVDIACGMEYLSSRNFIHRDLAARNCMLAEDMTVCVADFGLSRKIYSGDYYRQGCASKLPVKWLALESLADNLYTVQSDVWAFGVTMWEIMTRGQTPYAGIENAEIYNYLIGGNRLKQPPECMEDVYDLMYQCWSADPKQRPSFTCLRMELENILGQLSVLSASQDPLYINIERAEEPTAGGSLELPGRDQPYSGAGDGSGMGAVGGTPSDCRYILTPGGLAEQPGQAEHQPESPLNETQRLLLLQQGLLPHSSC

SRSF protein kinase 1 = SRSF protein kinase 1 (Homo sapiens, UniProt Q96SB4);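 note: measured as one member of a kinome-wide kinase profiling panel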
[5] = biological target: Casein kinase II subunit alpha (Homo sapiens, UniProt P68400)
[6] = biological target: Serine/threonine-protein kinase PAK 4 (Homo sapiens, UniProt O96013);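 note: value obtained within a kinome profiling panel in which PAK4 was one of the panel members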
[7] = biological target: Serine/threonine-protein kinase PAK 1 (Homo sapiens, UniProt Q13153)
[8] = biological target: Tyrosine-protein kinase JAK3 (Homo sapiens, UniProt P52333)
[9] = biological target: Tyrosine-protein kinase ITK/TSK (Homo sapiens, UniProt Q08881);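 note: affinity for ITK measured as one member of a broad kinase panel profiling binding across the kinome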
[10] = biological target: Proto-oncogene tyrosine-protein kinase ROS (Homo sapiens, UniProt P08922);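 note: ROS1 tested as one member of a kinome-wide kinase panel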
[11] = biological target: Testis-specific serine/threonine-protein kinase 1 (Homo sapiens, UniProt Q9BXA7)
[12] = biological target: MAP/microtubule affinity-regulating kinase 3 (Homo sapiens, UniProt P27448);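 note: MARK3 affinity measured as one member of a kinome panel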
Insulin receptor = Insulin receptor (Homo sapiens, UniProt P06213);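 note: insulin receptor kinase tested as one member of a kinome-wide kinase panel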
[13] = biological target: Protein kinase C gamma type (Homo sapiens, UniProt P05129)
[14] = biological target: Proto-oncogene tyrosine-protein kinase Src (Homo sapiens, UniProt P12931);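 note: SRC entry within a kinome-wide kinase profiling panel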
[15] = biological target: Calcium/calmodulin-dependent protein kinase type II subunit beta (Homo sapiens, UniProt Q13554)
Ephrin type-A receptor 2 = Ephrin type-A receptor 2 (Homo sapiens, UniProt P29317);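 note: EPHA2 tested as one member of a kinome-wide kinase panel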
[16] = biological target: Insulin-like growth factor 1 receptor (Homo sapiens, UniProt P08069); assay: Navigating the Kinome. Panel member name: IGF1R
[17] = biological target: Serine/threonine-protein kinase Nek4 (Homo sapiens, UniProt P51957)
[18] = biological target: Maternal embryonic leucine zipper kinase (Homo sapiens, UniProt Q14680)
[19] = biological target: Rho-associated protein kinase 1 (Homo sapiens, UniProt Q13464);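 note: measured within a broad kinome-wide panel profiling many kinases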
[20] = biological target: Calcium/calmodulin-dependent protein kinase type 1 (Homo sapiens, UniProt Q14012)
[21] = biological target: Tyrosine-protein kinase Fyn (Homo sapiens, UniProt P06241)
[22] = biological target: Homeodomain-interacting protein kinase 4 (Homo sapiens, UniProt Q8NE63)
[23] = biological target: Serine/threonine-protein kinase pim-2 (Homo sapiens, UniProt Q9P1W9);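 note: value comes from a broad kinase panel profiling study in which PIM2 was one of the panel members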
[24] = biological target: 3-phosphoinositide-dependent protein kinase 1 (Homo sapiens, UniProt O15530);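 note: value comes from the Navigating the Kinome panel, PDPK1 member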
[25] = biological target: Mitogen-activated protein kinase 12 (Homo sapiens, UniProt P53778);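 note: measured as one member of a kinome-wide kinase profiling panel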
[26] = biological target: Lymphokine-activated killer T-cell-originated protein kinase (Homo sapiens, UniProt Q96KB5);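 note: value comes from a kinase panel screen in which TOPK was one of the panel members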
[27] = biological target: Mitogen-activated protein kinase kinase kinase kinase 4 (Homo sapiens, UniProt O95819)
[28] = biological target: Macrophage-stimulating protein receptor (Homo sapiens, UniProt Q04912); assay: Navigating the Kinome. Panel member name: MST1R
[29] = biological target: Platelet-derived growth factor receptor alpha (Homo sapiens, UniProt P16234); assay: Navigating the Kinome. Panel member name: PDGFRA
[30] = biological target: Cyclin-dependent kinase 9 (Homo sapiens, UniProt P50750);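 note: value from the CDK9 entry of a kinome-spanning kinase panel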
Cyclin-dependent kinase 9, sequence (P50750 whole entry): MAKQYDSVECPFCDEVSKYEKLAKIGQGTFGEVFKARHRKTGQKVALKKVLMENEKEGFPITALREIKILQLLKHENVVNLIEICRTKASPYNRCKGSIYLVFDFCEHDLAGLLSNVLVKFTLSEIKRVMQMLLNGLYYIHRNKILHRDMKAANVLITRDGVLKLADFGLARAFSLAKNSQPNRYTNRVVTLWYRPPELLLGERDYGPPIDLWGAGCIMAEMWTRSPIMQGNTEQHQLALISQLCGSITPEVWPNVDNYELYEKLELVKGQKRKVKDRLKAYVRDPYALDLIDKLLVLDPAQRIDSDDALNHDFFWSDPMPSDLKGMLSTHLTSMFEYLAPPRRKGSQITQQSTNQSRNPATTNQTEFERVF

Calcium/calmodulin-dependent protein kinase type II subunit beta, sequence (Q13554 whole entry): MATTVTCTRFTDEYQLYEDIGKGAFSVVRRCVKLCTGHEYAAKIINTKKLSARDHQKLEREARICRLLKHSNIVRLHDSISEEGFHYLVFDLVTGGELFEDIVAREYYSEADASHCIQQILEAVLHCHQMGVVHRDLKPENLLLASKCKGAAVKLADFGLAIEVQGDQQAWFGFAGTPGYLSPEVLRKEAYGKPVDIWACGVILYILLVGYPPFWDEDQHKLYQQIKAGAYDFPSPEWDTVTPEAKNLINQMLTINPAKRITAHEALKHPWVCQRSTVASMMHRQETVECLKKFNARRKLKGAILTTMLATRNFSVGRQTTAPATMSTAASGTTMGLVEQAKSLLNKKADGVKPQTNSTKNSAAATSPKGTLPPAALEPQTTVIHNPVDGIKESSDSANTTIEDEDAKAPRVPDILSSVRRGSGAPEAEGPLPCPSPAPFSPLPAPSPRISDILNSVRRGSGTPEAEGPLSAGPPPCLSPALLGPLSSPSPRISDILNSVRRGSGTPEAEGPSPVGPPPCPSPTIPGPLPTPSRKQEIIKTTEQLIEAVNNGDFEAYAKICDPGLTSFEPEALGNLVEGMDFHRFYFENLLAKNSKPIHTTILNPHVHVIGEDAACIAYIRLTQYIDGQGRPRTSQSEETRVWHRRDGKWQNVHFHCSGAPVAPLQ
Ribosomal protein S6 kinase beta-1, sequence (P23443 whole entry): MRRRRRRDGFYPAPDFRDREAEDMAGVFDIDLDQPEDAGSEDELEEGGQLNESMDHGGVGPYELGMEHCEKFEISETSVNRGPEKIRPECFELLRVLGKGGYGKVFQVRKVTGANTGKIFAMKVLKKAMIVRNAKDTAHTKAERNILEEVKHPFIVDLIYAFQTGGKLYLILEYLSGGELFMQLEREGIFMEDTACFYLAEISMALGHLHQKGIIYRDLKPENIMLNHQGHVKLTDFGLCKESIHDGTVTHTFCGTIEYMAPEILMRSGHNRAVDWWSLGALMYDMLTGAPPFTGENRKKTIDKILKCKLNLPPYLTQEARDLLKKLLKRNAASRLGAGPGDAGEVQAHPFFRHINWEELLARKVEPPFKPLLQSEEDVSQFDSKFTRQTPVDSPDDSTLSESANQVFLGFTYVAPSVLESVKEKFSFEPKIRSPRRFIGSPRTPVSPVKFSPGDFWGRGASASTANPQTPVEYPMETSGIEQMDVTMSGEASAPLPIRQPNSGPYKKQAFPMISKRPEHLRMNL
Megakaryocyte-associated tyrosine-protein kinase, sequence (P42679 whole entry): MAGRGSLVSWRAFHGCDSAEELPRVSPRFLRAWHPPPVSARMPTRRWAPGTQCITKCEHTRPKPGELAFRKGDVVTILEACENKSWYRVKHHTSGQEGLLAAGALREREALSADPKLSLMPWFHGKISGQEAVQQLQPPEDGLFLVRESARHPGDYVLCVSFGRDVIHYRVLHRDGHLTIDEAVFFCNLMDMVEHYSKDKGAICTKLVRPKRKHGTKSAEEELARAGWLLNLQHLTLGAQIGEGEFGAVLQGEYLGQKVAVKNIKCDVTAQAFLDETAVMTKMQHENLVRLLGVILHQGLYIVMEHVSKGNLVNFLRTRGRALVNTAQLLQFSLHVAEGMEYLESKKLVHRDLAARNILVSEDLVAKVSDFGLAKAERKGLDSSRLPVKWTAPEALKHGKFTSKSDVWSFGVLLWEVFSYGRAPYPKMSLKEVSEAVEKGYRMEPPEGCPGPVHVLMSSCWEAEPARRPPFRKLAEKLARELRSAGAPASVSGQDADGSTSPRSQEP
Serine/threonine-protein kinase PAK 4, sequence (O96013 whole entry): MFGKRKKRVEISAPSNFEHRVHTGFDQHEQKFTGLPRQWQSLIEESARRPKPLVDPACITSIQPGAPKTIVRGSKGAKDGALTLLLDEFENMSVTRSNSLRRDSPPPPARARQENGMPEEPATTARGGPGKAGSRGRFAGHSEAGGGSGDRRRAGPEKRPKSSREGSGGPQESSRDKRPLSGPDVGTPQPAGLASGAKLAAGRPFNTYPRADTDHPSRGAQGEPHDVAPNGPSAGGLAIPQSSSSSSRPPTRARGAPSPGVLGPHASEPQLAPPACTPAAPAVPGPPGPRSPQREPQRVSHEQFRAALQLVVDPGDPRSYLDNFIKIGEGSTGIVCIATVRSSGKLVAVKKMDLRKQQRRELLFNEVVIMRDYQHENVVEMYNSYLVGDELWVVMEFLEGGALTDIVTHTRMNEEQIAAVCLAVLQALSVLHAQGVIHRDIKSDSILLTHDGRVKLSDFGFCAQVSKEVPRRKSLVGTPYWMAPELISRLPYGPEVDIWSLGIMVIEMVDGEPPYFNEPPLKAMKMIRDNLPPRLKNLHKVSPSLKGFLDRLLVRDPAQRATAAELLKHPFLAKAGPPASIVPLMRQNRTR
Mitogen-activated protein kinase 12, sequence (P53778 whole entry): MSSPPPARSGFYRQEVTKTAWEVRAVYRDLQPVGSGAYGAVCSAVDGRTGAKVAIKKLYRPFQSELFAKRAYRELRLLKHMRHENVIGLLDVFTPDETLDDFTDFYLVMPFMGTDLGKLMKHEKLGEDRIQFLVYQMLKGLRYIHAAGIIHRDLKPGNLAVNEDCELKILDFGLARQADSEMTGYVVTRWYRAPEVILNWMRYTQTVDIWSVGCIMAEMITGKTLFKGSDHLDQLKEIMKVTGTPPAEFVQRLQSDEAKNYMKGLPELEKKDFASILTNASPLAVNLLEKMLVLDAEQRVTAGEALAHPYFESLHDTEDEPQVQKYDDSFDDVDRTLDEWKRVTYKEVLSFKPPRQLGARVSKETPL
Serine/threonine-protein kinase PAK 1, sequence (Q13153 whole entry): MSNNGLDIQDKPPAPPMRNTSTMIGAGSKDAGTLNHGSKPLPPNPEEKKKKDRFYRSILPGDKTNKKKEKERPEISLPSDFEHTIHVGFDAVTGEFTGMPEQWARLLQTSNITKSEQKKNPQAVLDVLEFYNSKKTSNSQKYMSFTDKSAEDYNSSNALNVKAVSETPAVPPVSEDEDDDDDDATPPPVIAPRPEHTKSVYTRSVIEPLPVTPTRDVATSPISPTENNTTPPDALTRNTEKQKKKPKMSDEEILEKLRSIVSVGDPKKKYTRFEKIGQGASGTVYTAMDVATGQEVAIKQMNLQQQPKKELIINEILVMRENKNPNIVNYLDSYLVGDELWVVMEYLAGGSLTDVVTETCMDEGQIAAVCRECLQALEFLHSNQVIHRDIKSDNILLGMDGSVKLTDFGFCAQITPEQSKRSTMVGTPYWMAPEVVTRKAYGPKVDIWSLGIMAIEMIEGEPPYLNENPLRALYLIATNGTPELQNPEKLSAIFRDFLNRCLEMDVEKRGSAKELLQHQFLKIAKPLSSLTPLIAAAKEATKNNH
Insulin-like growth factor 1 receptor, sequence (P08069 31-736 limits assumed): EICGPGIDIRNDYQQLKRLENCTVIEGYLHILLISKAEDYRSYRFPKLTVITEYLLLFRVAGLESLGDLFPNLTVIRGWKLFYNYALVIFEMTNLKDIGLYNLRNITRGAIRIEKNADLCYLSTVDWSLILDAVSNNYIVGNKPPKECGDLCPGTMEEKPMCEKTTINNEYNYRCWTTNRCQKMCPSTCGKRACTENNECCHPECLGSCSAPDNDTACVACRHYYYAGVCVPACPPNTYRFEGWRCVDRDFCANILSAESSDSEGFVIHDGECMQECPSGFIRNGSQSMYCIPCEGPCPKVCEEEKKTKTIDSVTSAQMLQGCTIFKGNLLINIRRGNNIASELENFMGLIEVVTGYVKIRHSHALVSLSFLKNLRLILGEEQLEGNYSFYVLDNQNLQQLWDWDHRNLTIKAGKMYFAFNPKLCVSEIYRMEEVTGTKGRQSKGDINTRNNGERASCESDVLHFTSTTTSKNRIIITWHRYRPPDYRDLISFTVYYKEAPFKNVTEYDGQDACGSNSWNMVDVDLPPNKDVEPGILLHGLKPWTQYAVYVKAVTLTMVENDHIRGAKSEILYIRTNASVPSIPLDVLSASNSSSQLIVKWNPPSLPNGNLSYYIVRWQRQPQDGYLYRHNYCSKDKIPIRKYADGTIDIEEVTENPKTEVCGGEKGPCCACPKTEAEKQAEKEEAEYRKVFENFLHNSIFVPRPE
Insulin-like growth factor 1 receptor, sequence (P08069 741-1367 limits assumed): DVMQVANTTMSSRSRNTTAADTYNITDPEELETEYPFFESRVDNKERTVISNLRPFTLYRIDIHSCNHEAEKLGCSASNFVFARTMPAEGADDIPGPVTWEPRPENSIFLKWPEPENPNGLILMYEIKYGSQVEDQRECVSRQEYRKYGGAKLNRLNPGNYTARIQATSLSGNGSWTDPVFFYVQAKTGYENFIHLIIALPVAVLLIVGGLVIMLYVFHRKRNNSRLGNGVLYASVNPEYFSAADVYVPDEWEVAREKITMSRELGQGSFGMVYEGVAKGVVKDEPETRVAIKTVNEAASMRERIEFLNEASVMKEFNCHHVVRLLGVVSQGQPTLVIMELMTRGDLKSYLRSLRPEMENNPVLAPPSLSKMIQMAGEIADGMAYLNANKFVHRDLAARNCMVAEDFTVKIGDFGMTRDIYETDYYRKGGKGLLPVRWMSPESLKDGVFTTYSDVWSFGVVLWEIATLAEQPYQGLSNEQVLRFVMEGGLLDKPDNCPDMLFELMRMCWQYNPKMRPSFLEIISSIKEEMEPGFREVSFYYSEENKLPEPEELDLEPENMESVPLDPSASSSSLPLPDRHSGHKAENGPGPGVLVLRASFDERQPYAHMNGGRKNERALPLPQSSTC

Ki (Insulin receptor) | Structure (SMILES) | IC50 (Genome polyprotein) | Ki [1] | Ki [2] | Ki [3] | Ki [4] | Ki (SRSF protein kinase 1) | Ki [5] | Ki [6] | Ki [7] | Ki [8] | Ki [9] | Ki [10] | Ki [11] | Ki [12] | Ki [13] | Ki [14] | Ki [15] | Ki (Ephrin type-A receptor 2) | Ki [16] | other results
 | O=C(O)c1ccc(NC2=C(Cl)C(=O)c3ccccc3C2=O)cc1 | 7760 nM (active) |  |  |  |  |  |  |  |  |  |  |  |  |  |  |  |  |  |  | 
> 5010 nM (inactive) | Cc1ccc2nccc(NC(=O)Nc3cccc(C(F)(F)F)n3)c2c1 |  | > 2000 nM (inactive) | > 10000 nM (inactive) | > 6310 nM (inactive) | > 2510 nM (inactive) | > 7940 nM (inactive) | 251 nM (active) | > 5010 nM (inactive) | > 10000 nM (inactive) | > 3160 nM (inactive) | > 1580 nM (inactive) | > 2000 nM (inactive) | > 1580 nM (inactive) | > 6310 nM (inactive) | 5010 nM (active) | > 2000 nM (inactive) | > 7940 nM (inactive) | > 3160 nM (inactive) | > 2000 nM (inactive) | Ki [17]: > 6310 nM (inactive); Ki [18]: > 1580 nM (inactive); Ki [19]: > 6310 nM (inactive); Ki [20]: > 3160 nM (inactive); Ki [21]: > 794 nM (inactive); Ki [22]: 251 nM (active); Ki [23]: > 1580 nM (inactive); Ki [24]: > 3980 nM (inactive); Ki [25]: > 6310 nM (inactive); Ki [26]: 2000 nM (active); Ki [27]: > 2510 nM (inactive); Ki [28]: 2510 nM (active)
> 50100 nM (inactive) | Cc1nn(C)c2sc3c(=O)[nH]cnc3c12 |  |  |  |  |  |  |  |  |  |  |  |  |  |  |  |  |  |  |  | Ki [29]: 100000 nM (active); Ki [30]: > 63100 nM (inactive)
 | Cc1c(/N=C2\C=CC(=O)c3ccccc32)c(=O)n(-c2ccccc2)n1C | 88600 nM (active) |  |  |  |  |  |  |  |  |  |  |  |  |  |  |  |  |  |  | 
 | COc1cc2c(cc1F)C(c1ccccc1Cl)=Nc1c(n[nH]c1C)N2 [RG-1530] |  | > 2000 nM (inactive) | > 10000 nM (inactive) | > 6310 nM (inactive) | > 2510 nM (inactive) | 3160 nM (active) | 2510 nM (active) | 79.4 nM (active) | 316 nM (active) | 79.4 nM (active) | 126 nM (active) | 20 nM (active) | > 1580 nM (inactive) | > 2510 nM (inactive) | 3980 nM (active) | 126 nM (active) | > 7940 nM (inactive) | 50.1 nM (active) | > 1260 nM (inactive) | Ki [17]: > 6310 nM (inactive); Ki [18]: 1260 nM (active); Ki [29]: 316 nM (active); Ki [19]: > 2510 nM (inactive); Ki [20]: > 3160 nM (inactive); Ki [21]: 316 nM (active); Ki [22]: > 7940 nM (inactive); Ki [23]: > 1580 nM (inactive); Ki [24]: 50.1 nM (active); Ki [30]: > 1580 nM (inactive); Ki [25]: > 6310 nM (inactive); Ki [26]: > 10000 nM (inactive); Ki [27]: > 3980 nM (inactive); Ki [28]: 39.8 nM (active)
